Where a name gives a salt, the structure may show the parent alone.
Assays:
B anthracis = details: cited from earlier work
Clostridium perfringens = type: cell-based
Bacillus anthracis = type: cell-based
[1] = system: Brucella abortis, B milletensis and B suis; type: cell-based
Burkholderia mallei = type: cell-based
Yersinia Pestis = type: cell-based
Francisella tularensis = type: cell-based
Clostridium botulinin = type: cell-based
anthrax infection = details: in vivo; cited from earlier work

| Compound | Sensitivity of naturally occurring anthrax strains (B anthracis) | Effective against B anthracis in vitro (B anthracis) | Suitability against Clostridium perfringens (Clostridium perfringens) | Suitability against Bacillus anthracis (Bacillus anthracis) | Suitability against Brucella abortis, B milletensis and B suis [1] | Suitability against Burkholderia mallei (Burkholderia mallei) | Suitability against Yersinia Pestis (Yersinia Pestis) | Suitability against Francisella tularensis (Francisella tularensis) | Suitability against Clostridium botulinin (Clostridium botulinin) | Efficacy in treatment of anthrax infection, animal models (anthrax infection) |
| --- | --- | --- | --- | --- | --- | --- | --- | --- | --- | --- |
| penicillin | sensitive |  |  |  |  |  |  |  |  |  |
| CC[C@H]1OC(=O)[C@H](C)[C@@H](O[C@H]2C[C@@](C)(OC)[C@@H](O)[C@H](C)O2)[C@H](C)[C@@H](O[C@@H]2O[C@H](C)C[C@H](N(C)C)[C@H]2O)[C@](C)(O)C[C@@H](C)C(=O)[C@H](C)[C@@H](O)[C@]1(C)O [erythromycin] |  | effective |  |  |  |  |  |  |  |  |
| CO/N=C(\C(=O)N[C@@H]1C(=O)N2C(C(=O)O)=C(COC(N)=O)CS[C@H]12)c1ccco1 [Cefuroxime] |  |  | No | Yes | No | No | Yes | Yes | No |  |
| CN[C@H](CC(C)C)C(=O)N[C@H]1C(=O)N[C@@H](CC(N)=O)C(=O)N[C@H]2C(=O)N[C@H]3C(=O)N[C@H](C(=O)N[C@H](C(=O)O)c4cc(O)cc(O)c4-c4cc3ccc4O)[C@H](O)c3ccc(c(Cl)c3)Oc3cc2cc(c3O[C@@H]2O[C@H](CO)[C@@H](O)[C@H](O)[C@H]2O[C@H]2C[C@](C)(N)[C@H](O)[C@H](C)O2)Oc2ccc(cc2Cl)[C@H]1O [Vancomycin HCl] |  | effective | Yes** | Yes | No | No | No | No | Yes* |  |
| Cc1nnc(SCC2=C(C(=O)O)N3C(=O)[C@@H](NC(=O)Cn4cnnn4)[C@H]3SC2)s1 [Cefazolin] |  | effective |  | Yes | No | No | Yes | Yes |  |  |
| CCCCCCCCCC(=O)N[C@@H](Cc1c[nH]c2ccccc12)C(=O)N[C@H](CC(N)=O)C(=O)N[C@@H](CC(=O)O)C(=O)N[C@@H]1C(=O)NCC(=O)N[C@@H](CCCN)C(=O)N[C@@H](CC(=O)O)C(=O)N[C@H](C)C(=O)N[C@@H](CC(=O)O)C(=O)NCC(=O)N[C@H](CO)C(=O)N[C@@H]([C@H](C)CC(=O)O)C(=O)N[C@@H](CC(=O)c2ccccc2N)C(=O)O[C@@H]1C [Daptomycin, N-(1-oxodecyl)-L-tryptophyl-L-asparaginyl-L-A-aspartyl-L-threonylglycyl-L-ornithyl-L-A-aspartyl-D-alanyl-L-A-aspartylglycyl-D-seryl-threo-3-methyl-L-A-glutamyl-G-(2-aminophenyl)-G-oxo-L-A-aminobutanoicacid, E1-lactone] |  |  | Yes** | Yes | No | No | No | No | Yes* |  |
| CC1=C(C(=O)O)N2C(=O)[C@@H](NC(=O)[C@H](N)c3ccccc3)[C@H]2SC1 [Cephalexin Monohydrate] |  |  | No | Yes | No | No | Yes | Yes | No |  |
| O=C(N[C@H](CO)[C@H](O)c1ccc([N+](=O)[O-])cc1)C(Cl)Cl [chloramphenicol] |  | effective |  |  |  |  |  |  |  |  |
| CC(=O)OCC1=C(C(=O)O)N2C(=O)[C@@H](NC(=O)Cc3cccs3)[C@H]2SC1 [Cephalothin] |  |  | No | Yes | No | No | Yes | Yes | No |  |
| CCn1nc(C(=O)O)c(=O)c2cc3c(cc21)OCO3 [Cinoxacin] |  |  | No | Yes | No | No | Yes | Yes | No |  |
| N[C@@H](C(=O)N[C@@H]1C(=O)N2C(C(=O)O)=C(Cl)CC[C@H]12)c1ccccc1.O [Loracarbef, (6R,7S)-7-[(R)-2-amino-2-phenylacetamido]-3-chloro-8-oxo-1-azabicyclo[4.2.0]oct-2-ene-2-carboxylic acid, monohydrate] |  |  | No | Yes | No | No | Yes | Yes | No |  |
| CN[C@H](CC(C)C)C(=O)N[C@H]1C(=O)N[C@@H](CC(N)=O)C(=O)N[C@H]2C(=O)N[C@H]3C(=O)N[C@H](C(=O)N[C@H](C(=O)O)c4cc(O)cc(O)c4-c4cc3ccc4O)[C@H](O[C@H]3C[C@](C)(N)[C@@H](O)[C@H](C)O3)c3ccc(c(Cl)c3)Oc3cc2cc(c3O[C@@H]2O[C@H](CO)[C@@H](O)[C@H](O)[C@H]2O[C@H]2C[C@](C)(NCc3ccc(-c4ccc(Cl)cc4)cc3)[C@@H](O)[C@H](C)O2)Oc2ccc(cc2Cl)[C@H]1O [Oritavancin, (4″R)-22-O-(3-amino-2,3,6-trideoxy-3-C-methyl-A-L-arabino-hexopyranosyl)-N3″-((4-chloro(1,1′-biphenyl)-4′-yl)methyl)vancomycin] |  |  | Yes** | Yes | No | No | No | No | Yes* |  |
| Cn1nnnc1SCC1=C(C(=O)O)N2C(=O)[C@@H](NC(=O)[C@H](O)c3ccccc3)[C@H]2SC1 [Cefamandole] |  |  | No | Yes | No | No | Yes | Yes | No |  |
| O=C(O)c1cn(C2CC2)c2cc(N3CCNCC3)c(F)cc2c1=O [ciprofloxacin] |  |  |  |  |  |  |  |  |  | excellent efficacy |
| N[C@@H](C(=O)N[C@@H]1C(=O)N2C(C(=O)O)=C(Cl)CS[C@H]12)c1ccccc1 [Cefaclor, 3-chloro-7-D-(2-phenylglycinamido)-3-cephem-4-carboxylic acid monohydrate] |  |  | No | Yes | No | No | Yes | Yes | No |  |
| NC[C@H]1O[C@H](O[C@H]2[C@H](O)[C@@H](O[C@H]3O[C@H](CO)[C@@H](O)[C@H](N)[C@H]3O)[C@H](N)C[C@@H]2N)[C@H](N)C[C@@H]1O [Tobramycin] |  |  | No | Yes | Yes | Yes | Yes | Yes | No |  |

— patent US20030176327A1 (priority 2001, published 2003)
